# Assay results: PubChem BioAssay (NCI)
# Values joined by “and” are separate entries in the source; they are usually repeats but may differ in a detail not shown here. Identical values can stand only once.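 Assay format: 96-well plates, 48-hour exposure. GI50 = concentration required for 50% inhibition of growth. TGI denotes the concentration required for complete inhibition of growth.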
# Key:
# Assay in all cases: NCI tumour cell line growth inhibition, 48 h
# RXF 393 renal = tested on: RXF 393 renal
# DMS 273 small cell lung = tested on: DMS 273 small cell lung
# K-562 leukemia = tested on: K-562 leukemia
# MOLT-4 leukemia = tested on: MOLT-4 leukemia
# HOP-92 NSCLC = tested on: HOP-92 NSCLC
# LXFL 529 NSCLC = tested on: LXFL 529 NSCLC
# SK-MEL-5 melanoma = tested on: SK-MEL-5 melanoma
# KM12 colon = tested on: KM12 colon
# DLD-1 colon = tested on: DLD-1 colon
# SF-268 CNS = tested on: SF-268 CNS
# OVCAR-4 ovarian = tested on: OVCAR-4 ovarian
# HCT-116 colon = tested on: HCT-116 colon
# M19-MEL melanoma = tested on: M19-MEL melanoma
# SW-620 colon = tested on: SW-620 colon
# NCI-H23 lung = tested on: NCI-H23 lung
# COLO 205 colon = tested on: COLO 205 colon
# CAKI-1 renal = tested on: CAKI-1 renal
# DMS 114 small cell lung = tested on: DMS 114 small cell lung
# HL-60(TB) leukemia = tested on: HL-60(TB) leukemia
# KM20L2 colon = tested on: KM20L2 colon
# SNB-75 CNS = tested on: SNB-75 CNS
# CCRF-CEM leukemia = tested on: CCRF-CEM leukemia
# SK-MEL-28 melanoma = tested on: SK-MEL-28 melanoma
# OVCAR-3 ovarian = tested on: OVCAR-3 ovarian
# SF-295 CNS = tested on: SF-295 CNS
# 786-0 renal = tested on: 786-0 renal
# XF 498 CNS = tested on: XF 498 CNS
# M14 melanoma = tested on: M14 melanoma
# HCT-15 colon = tested on: HCT-15 colon
# UACC-62 melanoma = tested on: UACC-62 melanoma
# SNB-78 CNS = tested on: SNB-78 CNS
# OVCAR-8 ovarian = tested on: OVCAR-8 ovarian
# SN12C renal = tested on: SN12C renal
# NCI-H460 lung = tested on: NCI-H460 lung
# HT29 colon = tested on: HT29 colon
# U251 CNS = tested on: U251 CNS
# MALME-3M melanoma = tested on: MALME-3M melanoma
# UACC-257 melanoma = tested on: UACC-257 melanoma
# LOX IMVI melanoma = tested on: LOX IMVI melanoma
# RPMI-8226 leukemia = tested on: RPMI-8226 leukemia
# NCI-H522 lung = tested on: NCI-H522 lung
# SF-539 CNS = tested on: SF-539 CNS
compound,measurement,setting,value
NCCSSC/C=C\CSSCCN,TGI,RXF 393 renal,> 100 µM
same,TGI,DMS 273 small cell lung,> 100 µM and 60.8 µM
same,GI50,K-562 leukemia,6.31 µM and 15.7 µM
same,TGI,K-562 leukemia,25.4 µM and 40.5 µM
same,TGI,MOLT-4 leukemia,65.2 µM and 53.9 µM
same,TGI,HOP-92 NSCLC,> 100 µM
same,TGI,LXFL 529 NSCLC,> 67.2 µM and 44.6 µM
same,GI50,SK-MEL-5 melanoma,> 85.7 µM and 26.9 µM
same,TGI,SK-MEL-5 melanoma,> 100 µM and 77.9 µM
same,GI50,KM12 colon,65 µM and 23.4 µM
same,TGI,KM12 colon,> 100 µM and 62 µM
same,GI50,DLD-1 colon,33.8 µM and 15.6 µM
same,TGI,DLD-1 colon,> 100 µM and 34.9 µM
same,GI50,SF-268 CNS,> 64.9 µM and 29.5 µM
same,TGI,SF-268 CNS,> 100 µM
same,TGI,OVCAR-4 ovarian,77.3 µM and 41.2 µM
same,TGI,HCT-116 colon,> 100 µM
same,TGI,M19-MEL melanoma,> 100 µM and 95.2 µM
same,TGI,SW-620 colon,> 64.8 µM and 28.3 µM
same,TGI,NCI-H23 lung,> 100 µM
same,GI50,COLO 205 colon,42.7 µM and 18.4 µM
same,TGI,COLO 205 colon,> 100 µM and 34 µM
same,TGI,CAKI-1 renal,> 100 µM
same,TGI,DMS 114 small cell lung,> 95.1 µM and 44 µM
same,TGI,HL-60(TB) leukemia,29.6 µM and 45.7 µM
same,GI50,KM20L2 colon,76.3 µM and 21.6 µM
same,TGI,KM20L2 colon,> 100 µM and 45 µM
same,TGI,SNB-75 CNS,> 100 µM
same,TGI,CCRF-CEM leukemia,68.6 µM
same,GI50,SK-MEL-28 melanoma,56 µM and 24.7 µM
same,TGI,SK-MEL-28 melanoma,> 100 µM and 77.8 µM
same,GI50,OVCAR-3 ovarian,> 68.6 µM and 25.1 µM
same,TGI,OVCAR-3 ovarian,> 100 µM and 67.1 µM
same,GI50,SF-295 CNS,> 90.3 µM and 27.6 µM
same,TGI,SF-295 CNS,> 100 µM and 80.8 µM
same,GI50,786-0 renal,56.4 µM and 27.1 µM
same,TGI,786-0 renal,> 100 µM and 82 µM
same,GI50,XF 498 CNS,79.7 µM and 21.6 µM
same,TGI,XF 498 CNS,> 100 µM and 69.5 µM
same,TGI,M14 melanoma,> 100 µM and 42.5 µM
same,TGI,HCT-15 colon,> 100 µM
same,GI50,UACC-62 melanoma,41.2 µM and 20.2 µM
same,TGI,UACC-62 melanoma,> 100 µM and 41.6 µM
same,TGI,SNB-78 CNS,> 100 µM
same,TGI,OVCAR-8 ovarian,> 69.5 µM and 34.6 µM
same,GI50,SN12C renal,43.5 µM and 19 µM
same,TGI,SN12C renal,> 100 µM and 38 µM
same,GI50,NCI-H460 lung,98.4 µM and 22.2 µM
same,TGI,NCI-H460 lung,> 100 µM and 51.9 µM
same,TGI,HT29 colon,> 100 µM and 58.9 µM
same,TGI,U251 CNS,> 100 µM and 67.4 µM
same,GI50,MALME-3M melanoma,> 40.4 µM and 17.8 µM
same,TGI,MALME-3M melanoma,> 55.8 µM and 78 µM
same,GI50,UACC-257 melanoma,76.8 µM and 29 µM
same,TGI,UACC-257 melanoma,> 100 µM
same,GI50,LOX IMVI melanoma,26.2 µM and 13 µM
same,TGI,LOX IMVI melanoma,> 59.9 µM and 27.9 µM
same,TGI,RPMI-8226 leukemia,99.5 µM and 58.8 µM
same,TGI,NCI-H522 lung,31.4 µM and 29.1 µM
same,TGI,SF-539 CNS,70.5 µM and 36.5 µM
